# Reference: PMC8145107 (Pharmaceutics, 2021)
# Assays:
# [1] = test system: Salmonella typhimurium TA98; conditions: TA98, without S-9 mix; J2 40, NA49 200, positive controls 1-2 μg/plate
# Protocol: To perform the Ames test of J2 and NA49, the number of revertant colonies was counted on each compound-treated plate at the maximum concentration at which the compound was soluble and nontoxic to the S. typhimurium tester strains (Supplementary Material S1). The ratio of the number of revertant colonies in the treated plate to colonies in the vehicle plate. […] For the hERG K^+ channel binding assay of J2 and NA49, the inhibitory activity against the hERG K^+ channel and its ligand was measured using a red fluorescent hERG channel ligand tracer. The final activity was assessed as a decrease in the degree of fluorescence polarization. […]
# The test was conducted with maximum concentration at which the compound was
# soluble and nontoxic to the S. typhimurium tester strains. #Factor = No. of revertant colonies
# of treated plate colonies of vehicle control plate. […]
# [2] = test system: NCI-H460 cells; assay: MTT viability assay, NCI-H460; type: cell-based, human; conditions: 24 h
# Protocol: The human NSCLC cell lines of NCI-H460, A549, HCC827, PC9, NCI-H1650, and NCI-H1975 were obtained from the American Type Culture Collection (Rockville, MD, USA). Cells were cultured in RPMI 1640 medium containing 10% FBS, 2 mmol/L L-glutamine, and 100 units/mL of penicillin and streptomycin and maintained at 37 °C in a humidified incubator containing 5% CO2.
# Cell viability against gefitinib-, cisplatin-, and NA49-induced toxicity was determined using an MTT (Amersham Pharmacia Biotech) assay in 96-well plates. […] Next, cells were incubated with 100 µL of 5 mg/mL 3-(4,5-dimethylthiazol-2-yl)-2,5-diphenyltetrazolium bromide (Sigma Aldrich, M5655) for 2 h. After the MTT mixture was removed, 100 µL of DMSO was added to each well, and absorbance at 540 nm was measured using an ELISA plate reader (TECAN, Twinfinite PRO).
# [3] = test system: NCI-H460 cells; assay: Cell death by PI staining / flow cytometry, NCI-H460; type: cell-based, human; conditions: NCI-H460; cisplatin 3 µM, Gef 30 µM, alone
# Protocol: (§1) Cells were plated in 6-well culture plates at a density of 1 × 10^5 cells/well. Compounds were applied to the cells immediately after seeding. When cells were harvested, cells were washed once with 1× phosphate-buffered saline (PBS), dissociated using Trypsin-EDTA, and centrifuged at 13,000 rpm for 3 min at 4 °C. Next, 1 mL of 1× PBS was added to wash the pellet again. Finally, 1 mL of 1× PBS and 1 μg/mL of propidium iodide (PI) were added to each polystyrene round-bottom tube. Flow cytometric analysis was performed using a FACS flow cytometer (BD Bioscience). To measure cell death, 10^4 cells were counted, and PI-stained cells were analyzed. FACS analysis in accordance with the manufacturer’s instruction. […]
# (§2) Table S1. CI values of NSCLC cell lines.
# (§3) Cell line Combination drug NA 10 µM NA 20 µM
# (§4) CI values were calculated from the data of percent inhibition of cell death by PI staining. Each CI
# (§5) value was analyzed by CompuSyn software. […]
# [4] = test system: A549 cells; assay: Cell death by PI staining / flow cytometry, A549; type: cell-based, human; conditions: cisplatin 3 µM, Gef 30 µM, alone
# Protocol: as §1, §2, §3, §4, §5
# [5] = biological target: CYP450 3A4 (Homo sapiens, UniProt P08684); assay: CYP450 enzyme inhibition, 3A4; conditions: 10 μM
# [6] = biological target: CYP450 2C19 (Homo sapiens, UniProt P33261); assay: CYP450 enzyme inhibition, 2C19; type: in vitro ADME; conditions: 10 μM
# Protocol: (§6) Permeability was evaluated with a parallel artificial membrane permeability (PAMPA) assay using an artificially generated lipid-infused membrane.
# [7] = biological target: CYP2C9 (Homo sapiens, UniProt P11712); assay: CYP450 enzyme inhibition, 2C9; type: in vitro ADME; conditions: 10 μM
# Protocol: as §6
# [8] = biological target: T1, CYP1A2 (Homo sapiens, UniProt P05177); assay: in vitro
# T1 sequence (P05177 1-516): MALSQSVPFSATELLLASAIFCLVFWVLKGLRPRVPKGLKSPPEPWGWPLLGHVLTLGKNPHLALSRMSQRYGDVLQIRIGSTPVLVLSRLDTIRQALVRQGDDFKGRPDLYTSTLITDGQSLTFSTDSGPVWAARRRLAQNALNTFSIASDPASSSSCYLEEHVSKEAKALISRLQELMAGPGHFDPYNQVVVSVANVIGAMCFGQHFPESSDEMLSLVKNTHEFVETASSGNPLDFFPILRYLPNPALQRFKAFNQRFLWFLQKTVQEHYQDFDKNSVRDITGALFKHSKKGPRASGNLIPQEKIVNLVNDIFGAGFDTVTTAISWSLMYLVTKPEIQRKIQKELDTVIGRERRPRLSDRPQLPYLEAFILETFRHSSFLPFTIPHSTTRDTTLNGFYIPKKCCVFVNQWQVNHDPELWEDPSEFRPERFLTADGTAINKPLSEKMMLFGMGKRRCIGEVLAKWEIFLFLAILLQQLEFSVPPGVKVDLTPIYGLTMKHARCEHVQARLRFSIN
# [9] = biological target: CYP450 2D6 (Homo sapiens, UniProt P10635); assay: CYP450 enzyme inhibition, 2D6; type: in vitro ADME; conditions: 10 μM
# Chain of CYP450 2D6 (P10635 whole entry): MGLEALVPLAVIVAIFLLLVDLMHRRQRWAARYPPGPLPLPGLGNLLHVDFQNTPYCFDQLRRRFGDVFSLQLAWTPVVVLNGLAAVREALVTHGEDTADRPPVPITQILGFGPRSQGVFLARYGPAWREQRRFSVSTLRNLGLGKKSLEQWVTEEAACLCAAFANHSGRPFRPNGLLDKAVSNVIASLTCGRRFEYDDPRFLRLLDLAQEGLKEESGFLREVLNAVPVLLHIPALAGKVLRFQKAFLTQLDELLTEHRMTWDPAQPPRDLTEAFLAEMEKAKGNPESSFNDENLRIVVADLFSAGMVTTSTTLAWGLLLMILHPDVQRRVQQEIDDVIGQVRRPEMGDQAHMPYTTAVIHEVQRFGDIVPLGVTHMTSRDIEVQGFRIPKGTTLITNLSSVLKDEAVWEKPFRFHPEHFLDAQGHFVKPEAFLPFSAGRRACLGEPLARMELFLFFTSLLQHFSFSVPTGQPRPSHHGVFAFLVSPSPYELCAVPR
# Chain of CYP450 2C19 (P33261 whole entry): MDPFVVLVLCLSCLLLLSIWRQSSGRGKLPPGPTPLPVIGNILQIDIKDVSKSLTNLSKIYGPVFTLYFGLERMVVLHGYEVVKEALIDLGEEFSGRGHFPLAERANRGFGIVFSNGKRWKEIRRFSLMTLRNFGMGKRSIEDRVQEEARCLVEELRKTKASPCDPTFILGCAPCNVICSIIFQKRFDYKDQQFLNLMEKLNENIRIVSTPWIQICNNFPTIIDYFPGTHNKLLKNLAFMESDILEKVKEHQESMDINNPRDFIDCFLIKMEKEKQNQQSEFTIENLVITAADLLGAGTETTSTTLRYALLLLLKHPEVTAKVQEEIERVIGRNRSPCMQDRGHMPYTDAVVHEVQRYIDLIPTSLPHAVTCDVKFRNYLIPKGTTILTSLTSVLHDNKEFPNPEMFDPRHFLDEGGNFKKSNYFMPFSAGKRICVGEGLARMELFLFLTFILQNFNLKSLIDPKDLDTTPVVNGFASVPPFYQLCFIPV
# Chain of CYP2C9 (P11712 whole entry): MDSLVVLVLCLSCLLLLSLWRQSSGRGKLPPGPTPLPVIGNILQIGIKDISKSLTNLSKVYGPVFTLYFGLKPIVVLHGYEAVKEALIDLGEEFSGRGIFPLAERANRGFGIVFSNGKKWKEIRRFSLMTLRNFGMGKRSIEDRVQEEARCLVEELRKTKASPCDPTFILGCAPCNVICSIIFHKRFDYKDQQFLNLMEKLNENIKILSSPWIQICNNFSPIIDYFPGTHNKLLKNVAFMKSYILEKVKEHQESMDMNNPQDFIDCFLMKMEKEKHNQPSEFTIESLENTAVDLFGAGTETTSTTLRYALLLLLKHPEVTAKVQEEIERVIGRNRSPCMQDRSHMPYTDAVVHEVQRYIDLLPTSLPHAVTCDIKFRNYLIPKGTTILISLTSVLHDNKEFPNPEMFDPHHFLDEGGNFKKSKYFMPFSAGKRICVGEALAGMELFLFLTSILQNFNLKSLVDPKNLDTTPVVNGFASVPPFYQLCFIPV
# Chain of CYP450 3A4 (P08684 whole entry): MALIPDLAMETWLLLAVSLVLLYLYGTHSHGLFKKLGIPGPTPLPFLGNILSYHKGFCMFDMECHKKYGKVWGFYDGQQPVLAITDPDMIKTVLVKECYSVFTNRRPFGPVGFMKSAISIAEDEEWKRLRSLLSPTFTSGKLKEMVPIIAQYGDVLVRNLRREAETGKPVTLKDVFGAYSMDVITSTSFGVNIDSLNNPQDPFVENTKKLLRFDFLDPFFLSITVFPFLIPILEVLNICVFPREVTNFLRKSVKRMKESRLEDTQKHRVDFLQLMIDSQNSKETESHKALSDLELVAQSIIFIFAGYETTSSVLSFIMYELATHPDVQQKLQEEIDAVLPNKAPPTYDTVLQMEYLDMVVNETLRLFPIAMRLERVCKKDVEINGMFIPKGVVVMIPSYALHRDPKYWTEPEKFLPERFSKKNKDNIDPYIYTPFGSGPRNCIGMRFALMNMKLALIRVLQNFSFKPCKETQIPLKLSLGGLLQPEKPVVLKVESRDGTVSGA
structure (smiles),measurement,setting,value
"O=[N+]([O-])c1ccc2c(c1)Cc1ccccc1-2 [2-nitrofluorene, reference compound]",Factor (revertant colonies of treated plate/vehicle control plate),[1],28.9
same,Revertant colonies/plate (Mean ± S.D.),[1],462 ± 24 colonies/plate
"N.N.[Cl][Pt][Cl] [Cisplatin, cisplatin, reference compound]",IC50,[2],11.7 µM
same,Cell death,[3],less than 30%
same,Cell death,[4],less than 30%
"COc1cc2ncnc(Nc3ccc(F)c(Cl)c3)c2cc1OCCCN1CCOCC1 [Gef, Gefitinib, reference compound]",Cell death,[3],less than 30%
same,Cell death,[4],less than 30%
"OCc1ncc2n1-c1ccc(Cl)cc1C(c1ccccc1F)=NC2 [OH-midazolam, reference compound]","% inhibition of CYP450 3A4, positive control",[5],92.5%
"COc1ccc2nc([S+]([O-])Cc3ncc(CO)c(OC)c3C)[nH]c2c1 (centres unmarked) [OH-omeprazole, reference compound]","% inhibition of CYP450 2C19, positive control",[6],93.2%
"CCCCNC(=O)NS(=O)(=O)c1ccc(CO)cc1 [OH-tolbutamide, reference compound]","% inhibition of CYP450 2C9, positive control",[7],91.7%
CC(=O)Nc1ccc(O)cc1 [acetaminophen],inhibition at 10 μM,[8],92.4%
"CN1CC[C@@]23CCCC[C@@H]2[C@@H]1Cc1ccc(O)cc13 [dextrophan, reference compound]","% inhibition of CYP450 2D6, positive control",[9],94.0%
"[N-]=[N+]=[N-].[Na+] [sodium azide, reference compound]",Factor (revertant colonies of treated plate/vehicle control plate),[1],4.1
same,Revertant colonies/plate (Mean ± S.D.),[1],441 ± 16 colonies/plate
